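All cell lines were grown in 96-well plates and treated with compound for 48 hours. GI50 is the concentration that inhibits growth by half.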 Activity calls are given as the source filed them. No stated cut-off is given here; in the data, active = GI50 up to about 1.1 µM and inactive = higher.
What was measured:
Assay in all cases: growth of human tumour cells (NCI), 48 h
SN12C = test system: SN12C
UO-31 = test system: UO-31
MOLT-4 = test system: MOLT-4
TK-10 = test system: TK-10
HT-29 = test system: HT-29
SF-295 = test system: SF-295
SK-MEL-2 = test system: SK-MEL-2
PC-3 = test system: PC-3
Hs-578T = test system: Hs-578T
HCT-15 = test system: HCT-15
SK-MEL-5 = test system: SK-MEL-5
UACC-62 = test system: UACC-62
CAKI-1 = test system: CAKI-1
ACHN = test system: ACHN
OVCAR-5 = test system: OVCAR-5
SW-620 = test system: SW-620
NCI-H460 = test system: NCI-H460
LOX IMVI = test system: LOX IMVI
A498 = test system: A498
U-251 = test system: U-251
NCI/ADR-RES = test system: NCI/ADR-RES
UACC-257 = test system: UACC-257
NCI-H522 = test system: NCI-H522
CCRF-CEM = test system: CCRF-CEM
SF-268 = test system: SF-268
M14 = test system: M14
SNB-19 = test system: SNB-19
BT-549 = test system: BT-549
K562 = test system: K562
NCI-H226 = test system: NCI-H226
SK-OV-3 = test system: SK-OV-3
NCI-H23 = test system: NCI-H23
HCT-116 = test system: HCT-116
OVCAR-8 = test system: OVCAR-8
A549 = test system: A549
OVCAR-4 = test system: OVCAR-4
SR = test system: SR
786-0 = test system: 786-0
MDA-N = test system: MDA-N
MCF7 = test system: MCF7
KM12 = test system: KM12
SNB-75 = test system: SNB-75
RPMI-8226 = test system: RPMI-8226
MDA-MB-435 = test system: MDA-MB-435
HL-60 = test system: HL-60
HCC 2998 = test system: HCC 2998
COLO 205 = test system: COLO 205
MDA-MB-231 = test system: MDA-MB-231
OVCAR-3 = test system: OVCAR-3
Malme-3M = test system: Malme-3M
SF-539 = test system: SF-539
IGROV-1 = test system: IGROV-1
EKVX = test system: EKVX
T47D = test system: T47D
HOP-62 = test system: HOP-62
SK-MEL-28 = test system: SK-MEL-28
HOP-92 = test system: HOP-92
DU-145 = test system: DU-145
RXF 393 = test system: RXF 393

COc1ccc(C2SCC(=O)N2c2ccc(-n3c(-c4ccccc4)nc4ccccc4c3=O)cc2)cc1OC (centres undefined)
GI50 (SN12C): > 100 µM (inactive)
GI50 (UO-31): 12.9 µM (inactive)
GI50 (MOLT-4): 24.5 µM (inactive)
GI50 (TK-10): > 100 µM (inactive)
GI50 (HT-29): > 100 µM (inactive)
GI50 (SF-295): > 100 µM (inactive)
GI50 (SK-MEL-2): > 100 µM (inactive)
GI50 (PC-3): 71.3 µM (inactive)
GI50 (Hs-578T): 99.8 µM (inactive)
GI50 (HCT-15): > 100 µM
GI50 (SK-MEL-5): > 100 µM (inactive)
GI50 (UACC-62): 62.1 µM (inactive)
GI50 (CAKI-1): > 100 µM (inactive)
GI50 (ACHN): > 100 µM (inactive)
GI50 (OVCAR-5): > 100 µM (inactive)
GI50 (SW-620): > 100 µM (inactive)
GI50 (NCI-H460): > 100 µM (inactive)
GI50 (LOX IMVI): > 100 µM (inactive)
GI50 (A498): > 100 µM (inactive)
GI50 (U-251): > 100 µM (inactive)
GI50 (NCI/ADR-RES): > 100 µM (inactive)
GI50 (UACC-257): > 100 µM (inactive)
GI50 (NCI-H522): 90.6 µM (inactive)
GI50 (CCRF-CEM): > 100 µM (inactive)
GI50 (SF-268): > 100 µM (inactive)
GI50 (M14): > 100 µM (inactive)
GI50 (SNB-19): > 100 µM (inactive)
GI50 (BT-549): > 100 µM (inactive)
GI50 (K562): > 100 µM (inactive)
GI50 (NCI-H226): 31.3 µM (inactive)
GI50 (SK-OV-3): > 100 µM (inactive)
GI50 (NCI-H23): > 100 µM (inactive)
GI50 (HCT-116): > 100 µM (inactive)
GI50 (OVCAR-8): > 100 µM (inactive)
GI50 (A549): > 100 µM (inactive)
GI50 (OVCAR-4): > 10 µM (inactive)
GI50 (SR): > 100 µM (inactive)
GI50 (786-0): > 100 µM (inactive)
GI50 (MDA-N): > 100 µM (inactive)
GI50 (MCF7): > 100 µM (inactive)
GI50 (KM12): > 100 µM (inactive)
GI50 (SNB-75): 3.11 µM (inactive)
GI50 (RPMI-8226): > 100 µM (inactive)
GI50 (MDA-MB-435): > 100 µM (inactive)
GI50 (HL-60): > 100 µM (inactive)
GI50 (HCC 2998): > 100 µM (inactive)
GI50 (COLO 205): > 100 µM (inactive)
GI50 (MDA-MB-231): > 100 µM (inactive)
GI50 (OVCAR-3): > 100 µM (inactive)
GI50 (Malme-3M): > 100 µM (inactive)
GI50 (SF-539): > 100 µM (inactive)
GI50 (IGROV-1): > 100 µM (inactive)
GI50 (EKVX): > 100 µM (inactive)
GI50 (T47D): 90.6 µM (inactive)
GI50 (HOP-62): > 100 µM (inactive)
GI50 (SK-MEL-28): > 100 µM (inactive)

Cc1cc(Br)cc(C)c1NC(=O)C(=O)C1C(=O)C(CC2C(=O)c3ccccc3C2=O)C(=O)CC1(C)C (centres undefined)
GI50 (SN12C): > 100 µM (inactive)
GI50 (UO-31): 16.8 µM (inactive)
GI50 (MOLT-4): 18.1 µM (inactive)
GI50 (TK-10): > 100 µM (inactive)
GI50 (HT-29): > 100 µM (inactive)
GI50 (SF-295): > 100 µM (inactive)
GI50 (SK-MEL-2): > 100 µM (inactive)
GI50 (PC-3): 60.7 µM (inactive)
GI50 (HOP-92): 55.3 µM (inactive)
GI50 (Hs-578T): > 100 µM (inactive)
GI50 (HCT-15): 63.5 µM
GI50 (SK-MEL-5): > 100 µM (inactive)
GI50 (UACC-62): 90.2 µM (inactive)
GI50 (CAKI-1): > 100 µM (inactive)
GI50 (ACHN): > 100 µM (inactive)
GI50 (OVCAR-5): > 100 µM (inactive)
GI50 (SW-620): > 100 µM (inactive)
GI50 (NCI-H460): > 100 µM (inactive)
GI50 (LOX IMVI): > 100 µM (inactive)
GI50 (U-251): > 100 µM (inactive)
GI50 (NCI/ADR-RES): 86.5 µM (inactive)
GI50 (UACC-257): > 100 µM (inactive)
GI50 (NCI-H522): 44.5 µM (inactive)
GI50 (CCRF-CEM): 41.7 µM (inactive)
GI50 (SF-268): > 100 µM (inactive)
GI50 (M14): > 100 µM (inactive)
GI50 (SNB-19): > 100 µM (inactive)
GI50 (BT-549): > 100 µM (inactive)
GI50 (NCI-H226): 67.5 µM (inactive)
GI50 (SK-OV-3): > 100 µM (inactive)
GI50 (NCI-H23): 84.1 µM (inactive)
GI50 (HCT-116): 83.2 µM (inactive)
GI50 (OVCAR-8): > 100 µM (inactive)
GI50 (A549): 79.6 µM (inactive)
GI50 (OVCAR-4): 39.5 µM (inactive)
GI50 (DU-145): > 100 µM (inactive)
GI50 (786-0): > 100 µM (inactive)
GI50 (MDA-N): > 100 µM (inactive)
GI50 (MCF7): 18.6 µM (inactive)
GI50 (KM12): > 100 µM (inactive)
GI50 (SNB-75): > 100 µM (inactive)
GI50 (MDA-MB-435): > 100 µM (inactive)
GI50 (HL-60): 28.5 µM (inactive)
GI50 (HCC 2998): > 100 µM (inactive)
GI50 (COLO 205): > 100 µM (inactive)
GI50 (MDA-MB-231): 55 µM (inactive)
GI50 (OVCAR-3): > 100 µM (inactive)
GI50 (SF-539): > 100 µM (inactive)
GI50 (IGROV-1): 29.9 µM (inactive)
GI50 (EKVX): 50.8 µM (inactive)
GI50 (RXF 393): 3.66 µM (inactive)
GI50 (HOP-62): > 100 µM (inactive)
GI50 (SK-MEL-28): > 100 µM (inactive)

From ChEMBL document CHEMBL1201862, “PubChem BioAssay data set” (2004)
